Like-named read-outs stand apart in the source and are kept apart here.
Legend:
[1] = target: DCN1 (DCUND1) protein PONY domain (Homo sapiens (Human), UniProt Q96GG9); experiment: TR-FRET assay (binding to DCN-1, displacement of FAM-labeled probe)
In short: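 Compounds read at 1, 5 and 24 h, 0.1% final DMSO, by TR-FRET between terbium-streptavidin on biotinylated DCN1 PONY domain (E. coli) and a FAM-tagged non-covalent inhibitor probe. Two setups used, 5 nM protein with 20 nM labelled probe, or 0.31 nM protein with 100 nM labelled plus 800 nM unlabelled probe; buffer had TritonX and 200 mM NaCl. % activity relative to high (with probe) and low (without probe) controls.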

[2] = target: DCN1 protein (Homo sapiens (Human), UniProt Q96GG9); experiment: Intact protein MS analysis with the RapidFire-TOF system (covalent adduct formation); format: binding; details: 400 nM DCN1, incubated at room temperature for 3 hours
Procedure: (§1) DCN1 protein, His-TEV-DCN1, were expressed in E. Coli. The His-tagged protein was first purified with an Ni-NTA column. The His-tag was cleaved using His-tag TEV protease and the His-tags were removed using a second Ni-NTA column. Protein purity was verified with SDS-PAGE and intact MS. DCN1 was dissolved in a buffer containing 25 mM Tris-HCl, 200 mM NaCl, and 1 mM DTT at 400 nM. 11 concentrations of compounds were added to the DCN1 solution and incubated at room temperature for 3 hours, unless otherwise specified. The reaction plates were quenched by adding 0.2% formic acid. Quenched assay plates were analyzed with an Agilent RapidFire 360 system connected to an Agilent 6545 Q-TOF mass spectrometer equipped with an AJS source. 10 μL of sample volume was loaded onto a custom packed cartridge (4 μL, PLRP-S 30 μm/1000 Å pore; Optimize Technologies) with loading buffer (ddH2O with 0.09% (vol/vol) formic acid and 0.01% (vol/vol) trifluoroacetic acid; 1.25 ml/min) for 6 seconds before being eluted directly into the mass spectrometer in elution buffer (80% acetonitrile with 0.09% (vol/vol) formic acid and 0.01% (vol/vol) trifluoroacetic acid; 0.5 ml/min) for 7 seconds. The cartridge was re-equilibrated with loading buffer for 1 second before collection of the next sample. The Q-TOF was operated in TOF-only positive ionization mode set to the following parameters: Gas Temp=350 C, Drying Gas=7 l/min, Nebulizer=50 psi, Sheath Gas Temp=400 C, Sheath Gas Flow=12 l/min, VCap=4000 V, Nozzle Voltage=1000 V, Fragmentor=125 V, Skimmer=65 V and Oct 1 RF Vpp=750V. Raw MS data files were deconvoluted and analyzed using the Agilent MassHunter Bioconfirm software package to identify both parent protein and expected compound adduct mass signatures.
An MS assay was performed to evaluate the ability of the compounds to covalently modify DCN-1.
as §1, with “Vcap=4000” for “VCap=4000”

[3] = 24 hr after treatment with compound, read-out: TR FRET IC50 24 hr
[4] = TR FRET IC50 1 hr (nM), 1 hr after treatment with compound
[5] = read-out: TR FRET IC50 1 hr, 1 hr after treatment with compound

Chain of DCN1 protein (Q96GG9 whole entry): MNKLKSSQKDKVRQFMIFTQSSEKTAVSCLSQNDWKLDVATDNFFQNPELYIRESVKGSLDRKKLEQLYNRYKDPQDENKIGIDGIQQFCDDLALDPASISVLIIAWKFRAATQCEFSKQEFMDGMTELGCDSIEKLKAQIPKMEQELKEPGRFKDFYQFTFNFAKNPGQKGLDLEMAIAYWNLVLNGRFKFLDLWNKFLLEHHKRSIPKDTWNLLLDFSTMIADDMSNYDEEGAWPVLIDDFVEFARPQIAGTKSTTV
Chain of DCN1 (DCUND1) protein PONY domain (Q96GG9 60-248): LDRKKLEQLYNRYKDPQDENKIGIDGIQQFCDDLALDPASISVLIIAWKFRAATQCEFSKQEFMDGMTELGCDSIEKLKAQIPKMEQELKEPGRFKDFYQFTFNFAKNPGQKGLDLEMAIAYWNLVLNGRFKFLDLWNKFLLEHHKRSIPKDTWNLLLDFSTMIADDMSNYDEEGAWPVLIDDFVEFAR

| SMILES | IC50 [1, 3] | IC50 [1, 4] | Emax [2] | IC50 [1, 5] | % Adduct Formation (MS Emax) [2] |
| --- | --- | --- | --- | --- | --- |
| CCN1C(=O)[C@H](NC(=O)c2cccc(C(F)(F)F)c2)[C@@H](c2cccc(NC(=O)/C(C#N)=C/C(C)(C)C)c2)c2c(C)nn(-c3ccccc3)c21 (racemic) [Compound I-69, ˜{N}—[˜{rac}-(4˜{S},5˜{R})-7-ethyl-3-methyl-6-oxo-1-phenyl-4-[3-[[˜{rac}-(˜{E})-2-cyano-4,4-dimethyl-pent-2-enoyl]amino]phenyl]-4,5-dihydropyrazolo[3,4-b]pyridin-5-yl]-3-(trifluoromethyl)benzamide] | 200 to 1000 nM | 200 to 1000 nM | 80 to 100% | – | – |
| C=C(CN1CCN(C2COC2)CC1)C(=O)N(C)Cc1cccc([C@@H]2c3cnn(-c4ccccc4)c3N(CC)C(=O)[C@H]2NC(=O)c2cccc(C(F)(F)F)c2)c1 [Compound I-218] | ≤ 200 nM | ≤ 200 nM | 80 to 100% | – | – |
| C=C(CN1CCC(F)(F)C1)C(=O)NCc1cccc([C@@H]2c3cnn(-c4ccccc4)c3N(CC)C(=O)[C@H]2NC(=O)c2cccc(C(F)(F)F)c2)c1 [Compound I-44] | ≤ 200 nM | 200 to 1000 nM | 80 to 100% | – | – |
| C=C(CN1CC2(COC2)C1)C(=O)N(C)Cc1cccc([C@@H]2c3cnn(-c4ccccc4)c3N(CC)C(=O)[C@H]2NC(=O)c2cccc(C(F)(F)F)c2)c1 [Compound I-219] | ≤ 200 nM | 200 to 1000 nM | 80 to 100% | – | – |
| CCN1C(=O)[C@@H](NC(=O)c2nccc(C(F)(F)F)n2)[C@H](c2cccc(NC(=O)C3=CCN(C4COC4)C3)c2)c2c(C)nn(-c3ccccc3)c21 [Compound I-226] | 200 to 1000 nM | 1000 to 3000 nM | 0 to 30% | – | – |
| C=C(CN1CCOCC1)C(=O)Nc1cccc([C@H]2c3c(C)nn(-c4ccccc4)c3N(CC)C(=O)C2NC(=O)c2cccc(C(F)(F)F)c2)c1 (stereo in doubt) [Compound I-83, N-((4S,5R)-7-ethyl-3-methyl-4-(3-(2-(morpholinomethyl)acrylamido)phenyl)-6-oxo-1-phenyl-4,5,6,7-tetrahydro-1H-pyrazolo[3,4-b]pyridin-5-yl)-3-(trifluoromethyl)benzamide] | ≤ 200 nM | – | – | ≤ 200 nM | ++ (MS Emax % adduct formation greater than 30.0 and less than or equal to 80.0) |
| CCN1C(=O)[C@@H](NC(=O)c2cccc(C(F)(F)F)c2)[C@@H](c2cccc(NC(=O)/C=C/C(F)(F)F)c2)c2c(C)nn(-c3ccccc3)c21 (racemic) [Compound I-27] | > 3000 nM | > 3000 nM | 0 to 30% | – | – |
| CCN1C(=O)[C@H](NC(=O)c2cccc(C(F)(F)F)c2)[C@@H](c2cccc(N3CC=CS3(=O)=O)c2)c2c(C)nn(-c3ccccc3)c21 (racemic) [Compound I-130, rac-N-((4R,5S)-4-(3-(1,1-dioxidoisothiazol-2 (3H)-yl)phenyl)-7-ethyl-3-methyl-6-oxo-1-phenyl-4,5,6,7-tetrahydro-1H-pyrazolo[3,4-b]pyridin-5-yl)-3-(trifluoromethyl)benzamide] | 200 to 1000 nM | > 3000 nM | 0 to 30% | – | – |
| CCN1C(=O)[C@H](NC(=O)c2cccc(C(F)(F)F)c2)[C@@H](c2cccc(NC(=O)[C@H](F)Cl)c2)c2c(C)nn(-c3ccccc3)c21 (mixture of isomers) [Compound I-150] | 200 to 1000 nM | 1000 to 3000 nM | 80 to 100% | – | – |
| C/C=C(\CN1CCN(C2COC2)CC1)C(=O)Nc1cccc([C@@H]2c3c(C)nn(-c4ccccc4)c3N(CC)C(=O)[C@H]2NC(=O)c2nccc(C(F)(F)F)n2)c1 (racemic) [Compound I-229] | ≤ 200 nM | ≤ 200 nM | 80 to 100% | – | – |
| C/C=C(\CN1CCN(C2COC2)CC1)C(=O)Nc1cccc([C@@H]2c3cnn(-c4ccccc4)c3N(CC)C(=O)[C@H]2NC(=O)c2ccn(C3CC3)n2)c1 [Compound I-233] | ≤ 200 nM | ≤ 200 nM | 80 to 100% | – | – |
| CCN1CC=C(C(=O)Nc2cccc([C@@H]3c4c(C)nn(-c5ccccc5)c4N(CC)C(=O)[C@H]3NC(=O)c3nccc(C(F)(F)F)n3)c2)C1 [Compound I-225] | – | 200 to 1000 nM | 80 to 100% | – | – |
| C=CC(=O)Nc1cccc([C@H]2c3c(C)nn(-c4ccccc4)c3N(CC)C(=O)[C@@H]2NC(=O)c2cccc(C(F)(F)F)c2)c1 (racemic) [Compound I-77] | 200 to 1000 nM | 1000 to 3000 nM | 80 to 100% | – | – |
| C=C(CN1CCN(C2COC2)CC1)C(=O)N(C)Cc1cccc([C@@H]2c3cnn(-c4ccccc4)c3N(CC)C(=O)[C@H]2NC(=O)c2nccc(C(F)(F)F)n2)c1 [Compound I-223] | ≤ 200 nM | – | 80 to 100% | ≤ 200 nM | – |
| CCN1CC=C(C(=O)Nc2cccc([C@@H]3c4c(C)nn(-c5ccccc5)c4N(CC)C(=O)[C@H]3NC(=O)c3ccn(C(F)(F)F)n3)c2)C1 [Compound I-227] | ≤ 200 nM | 200 to 1000 nM | 80 to 100% | – | – |
| CCN1C(=O)[C@@H](NC(=O)c2nccc(C(F)(F)F)n2)[C@H](c2cccc(NC(=O)C3=CCN(C)C3)c2)c2c(C)nn(-c3ccccc3)c21 [Compound I-224] | ≤ 200 nM | 200 to 1000 nM | 80 to 100% | – | – |
| CCN1C(=O)[C@@H](NC(=O)c2cccc(C(F)(F)F)c2)[C@@H](c2cccc(NC(=O)[C@H](F)Cl)c2)c2c(C)nn(-c3ccccc3)c21 (mixture of isomers) [Compound I-18] | > 3000 nM | > 3000 nM | 0 to 30% | – | – |
| C/C=C(\CN1CCN(C2COC2)CC1)C(=O)NCc1cccc([C@@H]2c3cnn(-c4ccccc4)c3N(CC)C(=O)[C@H]2NC(=O)c2ccn(C(F)(F)F)n2)c1 [Compound I-230A, N-((4R,5S)-7-ethyl-4-(3-(((E)-2-((4-(oxetan-3-yl)piperazin-1-yl)methyl)but-2-enamido)methyl)phenyl)-6-oxo-1-phenyl-4,5,6,7-tetrahydro-1H-pyrazolo[3,4-b]pyridin-5-yl)-1-(trifluoromethyl)-1H-pyrazole-3-carboxamide] | ≤ 200 nM | 200 to 1000 nM | 80 to 100% | – | – |
| C=C(CN1CCC(F)(F)C1)C(=O)Nc1cccc([C@@H]2c3c(C)nn(-c4ccccc4)c3N(CC)C(=O)[C@H]2NC(=O)c2cccc(C(F)(F)F)c2)c1 (racemic) [Compound I-60] | ≤ 200 nM | – | 80 to 100% | ≤ 200 nM | – |
| C=C(CN(C)C1COC1)C(=O)NCc1cccc([C@@H]2c3cnn(-c4ccccc4)c3N(CC)C(=O)[C@H]2NC(=O)c2cccc(C(F)(F)F)c2)c1 [Compound I-66] | ≤ 200 nM | – | 80 to 100% | ≤ 200 nM | – |
| C=C(CN1CCC(F)(F)C1)C(=O)Nc1cccc([C@@H]2c3c(C)nn(-c4ccccc4)c3N(CC)C(=O)[C@H]2NC(=O)c2nccc(C(F)(F)F)n2)c1 [Compound I-228] | ≤ 200 nM | – | 80 to 100% | ≤ 200 nM | – |
| C/C=C(\CN1CCOCC1)C(=O)Nc1cccc([C@@H]2c3c(C)nn(-c4ccccc4)c3N(CC)C(=O)[C@H]2NC(=O)c2cccc(C(F)(F)F)c2)c1 (racemic) [Compound I-142] | ≤ 200 nM | ≤ 200 nM | 80 to 100% | – | – |
| C=C(CN1CC2(COC2)C1)C(=O)NCc1cccc([C@@H]2c3cnn(-c4ccccc4)c3N(CC)C(=O)[C@H]2NC(=O)c2cccc(C(F)(F)F)c2)c1 [Compound I-6] | ≤ 200 nM | – | 80 to 100% | ≤ 200 nM | – |

From US12435087B2, “Modulators of DCN-1 and methods of use thereof” (Cellarity, Inc., priority 2023, dated 2025)
